Converted amounts (≈) assume the structure as drawn.
Legend:
Strep dysgalaciae SPD1 = assay: MIC, veterinary bacteria; format: cell-based; conditions: veterinary bacteria (Table 2), read-out: MIC
M. suipneumoniae NB12 = assay: MIC, anti-mycoplasmal, Friis broth solidified with 0.9% agarose; format: cell-based; conditions: Mesomycoplasma hyopneumoniae, 144 h, inoculum 10^3 to 10^5 C.F.U., 6 days incubation at 37°C, read-out: in vitro MIC
M. suipneumoniae Str. 11 = assay: as above; format: cell-based; conditions: Mesomycoplasma hyopneumoniae, 144 h, inoculum 10^3 to 10^5 C.F.U., 6 days incubation at 37°C, read-out: in vitro MIC
M. suipneumoniae LABER = assay: as above; format: cell-based; conditions: Mesomycoplasma hyopneumoniae, 144 h, inoculum 10^3 to 10^5 C.F.U., 6 days incubation at 37°C, read-out: in vitro MIC
Bord bronchisptica BO9 = assay: MIC, veterinary bacteria; format: cell-based; conditions: veterinary bacteria (Table 2), read-out: MIC
[1] = test system: M. suipneumoniae ATCC 25095; assay: MIC, anti-mycoplasmal, Friis broth solidified with 0.9% agarose; format: cell-based; conditions: Mesomycoplasma hyopneumoniae, ATCC25095, 144 h, inoculum 10^3 to 10^5 C.F.U., 6 days incubation at 37°C, read-out: in vitro MIC
M. pneumoniae ATCC 15492 = assay: as above; format: cell-based; conditions: Mycoplasmoides pneumoniae, ATCC15492, 144 h, inoculum 10^3 to 10^5 C.F.U., 6 days incubation at 37°C, read-out: in vitro MIC
[2] = test system: Erysipelothrix rhusiopathiae NCTC 8163; assay: MIC, veterinary bacteria; format: cell-based; conditions: NCTC8163, veterinary bacteria (Table 2), read-out: MIC
Strep uberis SPU1 = assay: MIC, veterinary bacteria; format: cell-based; conditions: veterinary bacteria (Table 2), read-out: MIC
[3] = test system: Staph aureus 152 (pen sens); assay: MIC, veterinary bacteria; format: cell-based; conditions: Staphylococcus aureus, veterinary bacteria (Table 2), read-out: MIC
S typhimurium S18 = assay: MIC, veterinary bacteria; format: cell-based; conditions: veterinary bacteria (Table 2), read-out: MIC
Strep agalactiae SPA1 = assay: MIC, veterinary bacteria; format: cell-based; conditions: veterinary bacteria (Table 2), read-out: MIC
[4] = Mean serum concentration in neonatal piglets after intramuscular or oral administration; format: in vivo; conditions: pig, 50 mg/kg; for concentration at 1 h: 60'
Procedure: e) Mean serum concentration in neonatal piglets of Examples 4 and 5 after intramuscular or oral administration at 50 mg/kg
Blood levels were assessed in neonatal piglets (2 to 4 animals per group and man bodyweights about 2 kg). The dose was 50 mg/kg (dose solution = 25 mg/ml in 25% ethanol). Doses were given by intramuscular injection and orally by stomach tube. Piglets were bled at intervals up to 8 and at 24 hours, and serum assayed microbiologically (B. subtilis ATCC 6633).

Past multocida PA1 = assay: MIC, veterinary bacteria; format: cell-based; conditions: veterinary bacteria (Table 2), read-out: MIC
E coli E1 = assay: MIC, veterinary bacteria; format: cell-based; conditions: veterinary bacteria (Table 2), read-out: MIC
M. suipneumoniae MS 16 = assay: MIC, anti-mycoplasmal, Friis broth solidified with 0.9% agarose; format: cell-based; conditions: Mesomycoplasma hyopneumoniae, MS16, 144 h, inoculum 10^3 to 10^5 C.F.U., 6 days incubation at 37°C, read-out: in vitro MIC
M. suipneumoniae TAM 6N = assay: as above; format: cell-based; conditions: Mesomycoplasma hyopneumoniae, TAM6N, 144 h, inoculum 10^3 to 10^5 C.F.U., 6 days incubation at 37°C, read-out: in vitro MIC
M. bovis NCTC 10131 = assay: microbe, parasite or virus in culture; format: cell-based; conditions: NCTC10131, 144 h, read-out: in vitro MIC
M. hyorhinis ATCC 25021 = assay: MIC, anti-mycoplasmal, Friis broth solidified with 0.9% agarose; format: cell-based; conditions: Mesomycoplasma hyorhinis, ATCC25021, 144 h, inoculum 10^3 to 10^5 C.F.U., 6 days incubation at 37°C, read-out: in vitro MIC
[5] = test system: M. bovigenitalium ATCC 14173; assay: as above; format: cell-based; conditions: 144 h, inoculum 10^3 to 10^5 C.F.U., 6 days incubation at 37°C, read-out: in vitro MIC
Past multocida PA2 = assay: MIC, veterinary bacteria; format: cell-based; conditions: veterinary bacteria (Table 2), read-out: MIC
Past Haemolytica PA5 = assay: MIC, veterinary bacteria; format: cell-based; conditions: veterinary bacteria (Table 2), read-out: MIC
Staph aureus Oxford = assay: MIC, veterinary bacteria; format: cell-based; conditions: Staphylococcus aureus, veterinary bacteria (Table 2), read-out: MIC
[6] = test system: Corynebacterium pyogenes CY1; assay: MIC, veterinary bacteria; format: cell-based; conditions: veterinary bacteria (Table 2), read-out: MIC
[7] = test system: Staph aureus B4 (pen resis); assay: MIC, veterinary bacteria; format: cell-based; conditions: Staphylococcus aureus, veterinary bacteria (Table 2), read-out: MIC
M. suipneumoniae JF 435 = assay: MIC, anti-mycoplasmal, Friis broth solidified with 0.9% agarose; format: cell-based; conditions: Mesomycoplasma hyopneumoniae, JF435, 144 h, inoculum 10^3 to 10^5 C.F.U., 6 days incubation at 37°C, read-out: in vitro MIC
M. gallisepticum S6 = assay: as above; format: cell-based; conditions: Mycoplasmoides gallisepticum, 144 h, inoculum 10^3 to 10^5 C.F.U., 6 days incubation at 37°C, read-out: in vitro MIC
[8] = test system: M. suipneumoniae NCTC 10110; assay: as above; format: cell-based; conditions: Mesomycoplasma hyopneumoniae, NCTC10110, 144 h, inoculum 10^3 to 10^5 C.F.U., 6 days incubation at 37°C, read-out: in vitro MIC
[9] = test system: M. hyosynoviae ATCC 25591; assay: as above; format: cell-based; conditions: 144 h, inoculum 10^3 to 10^5 C.F.U., 6 days incubation at 37°C, read-out: in vitro MIC
[10] = test system: Strep suis (group D) SPS11; assay: MIC, veterinary bacteria; format: cell-based; conditions: veterinary bacteria (Table 2), read-out: MIC
M. dispar NCTC 10125 = assay: MIC, anti-mycoplasmal, Friis broth solidified with 0.9% agarose; format: cell-based; conditions: 144 h, inoculum 10^3 to 10^5 C.F.U., 6 days incubation at 37°C, read-out: in vitro MIC

CC(=CC(=O)OCCCC(=O)c1ccccc1)CC1OCC(CC2OC2C(C)C(C)O)C(O)C1O (centres unmarked) [Example 5, 4-Phenylbutan-4-onyl monate A]
MIC (Strep dysgalaciae SPD1): 0.07 µg/mL (≈ 0.143 µM) | MIC (M. suipneumoniae NB12): 0.5 µg/mL (≈ 1.02 µM) | MIC (M. suipneumoniae Str. 11): 0.25 µg/mL (≈ 0.51 µM) | MIC (M. suipneumoniae LABER): 0.25 µg/mL (≈ 0.51 µM) | MIC (Bord bronchisptica BO9): 5 µg/mL (≈ 10.2 µM) | MIC [1]: 0.25 µg/mL (≈ 0.51 µM) | MIC (M. pneumoniae ATCC 15492): 1 µg/mL (≈ 2.04 µM) | MIC [2]: 40 µg/mL (≈ 81.5 µM) | MIC (Strep uberis SPU1): 0.07 µg/mL (≈ 0.143 µM) | MIC [3]: 0.156 µg/mL (≈ 0.318 µM) | MIC (S typhimurium S18): 80 µg/mL (≈ 163 µM) | MIC (Strep agalactiae SPA1): 0.625 µg/mL (≈ 1.27 µM) | concentration at 10 min ([4]; im): 1900 ng/mL | concentration at 20 min ([4]; im): 2300 ng/mL | concentration at 40 min ([4]; im): 1500 ng/mL | concentration at 1 h ([4]; im): 1200 ng/mL | concentration at 2 h ([4]; im): 570 ng/mL | concentration at 3 h ([4]; im): 380 ng/mL | concentration at 4 h ([4]; im): 330 ng/mL | concentration at 6 h ([4]; im): 310 ng/mL | concentration at 8 h ([4]; im): 180 ng/mL | concentration at 24 h ([4]; im): < 200 ng/mL | concentration at 10 min ([4]; po): 1200 ng/mL | concentration at 20 min ([4]; po): 1200 ng/mL | concentration at 40 min ([4]; po): 1200 ng/mL | concentration at 1 h ([4]; po): 860 ng/mL | concentration at 2 h ([4]; po): 230 ng/mL | concentration at 3 h ([4]; po): 160 ng/mL | concentration at 4 h ([4]; po): 80 ng/mL | concentration at 6 h ([4]; po): 50 ng/mL | concentration at 8 h ([4]; po): 30 ng/mL | concentration at 24 h ([4]; po): < 200 ng/mL | MIC (Past multocida PA1): 1.25 µg/mL (≈ 2.55 µM) | MIC (E coli E1): 80 µg/mL (≈ 163 µM) | MIC (M. suipneumoniae MS 16): 0.25 µg/mL (≈ 0.51 µM) | MIC (M. suipneumoniae TAM 6N): 0.5 µg/mL (≈ 1.02 µM) | MIC (M. bovis NCTC 10131): ≤ 0.01 µg/mL | MIC (M. hyorhinis ATCC 25021): 0.25 µg/mL (≈ 0.51 µM) | MIC [5]: 0.025 µg/mL (≈ 0.051 µM) | MIC (Past multocida PA2): 0.312 µg/mL (≈ 0.636 µM) | MIC (Past Haemolytica PA5): 10 µg/mL (≈ 20.4 µM) | MIC (Staph aureus Oxford): 0.156 µg/mL (≈ 0.318 µM) | MIC [6]: > 80 µg/mL | MIC [7]: 0.156 µg/mL (≈ 0.318 µM) | MIC (M. suipneumoniae JF 435): 0.5 µg/mL (≈ 1.02 µM) | MIC (M. gallisepticum S6): 1 µg/mL (≈ 2.04 µM) | MIC [8]: 0.5 µg/mL (≈ 1.02 µM) | MIC [9]: 0.05 µg/mL (≈ 0.102 µM) | MIC [10]: 5 µg/mL (≈ 10.2 µM) | MIC (M. dispar NCTC 10125): 0.1 µg/mL (≈ 0.204 µM)

Source: patent EP0025288A1, “Derivatives of monic acid, processes for their preparation, compositions containing them and their preparation” (priority 1979, dated 1981)
